In patent US20100040628A1 (OsteoGeneX, Inc, priority 2008, published 2010):

Experiments:
C57BL/6 mice = assay: Bone growth with indoprofen: pQCT analysis on the femur after 30 days of daily treatment; assay type: in vivo, mouse; details: four month old male C57BL/6 mice, 2 mg/kg i.p. daily for 30 days, FIG. 2
Experimental: Four month old male C57BL/6 mice were treated daily with saline vehicle or the sclerostin inhibitor of indoprofen at 2 mg/kg (via i.p) for 30 days. Study endpoints included measurement of trabecular bone mineral content and bone mineral density by pQCT analysis on the femur.

mouse = assay: Mouse bone formation assay, micro-CT examination of test vs control animals; assay type: in vivo; details: predetermined dose for a complete dosing schedule, vs control solution
Text: Compounds useful in the methods of the present invention can be identified via a variety of methods known to one of skill in the art. Several exemplary methods for identifying such antagonists are described herein, including cell-based and in vitro techniques (Journal of Bone and Mineral Research 2006, 21(11), 1738-1749). A general method of identifying SOST antagonists involves evaluating the effects of antagonist candidates on bone formation under controlled conditions. Preferably bone formation is determined using micro-CT techniques on live animals. Preferred animals include rodents, more preferred are primates. Femur, tibia and vertebrae bones are particularly useful subjects for such study.
Briefly, the test animal is treated with a predetermined dose of a SOST antagonist candidate. […]
Once the dosing schedule has been completed, both test and control animals are examined to determine the quantity of bone formation present. […] Where necessary, levels of bone formation can be calculated by determining the volume of bone formation present in each animal. […]
For example, the mouse test animal is treated with a predetermined dose of a SOST antagonist candidate for a complete dosing schedule. […] Once the dosing schedule has been completed, both test and control animals are examined with sacrifice using micro-CT to determine the quantity of bone formation present.

Wnt pathway = Wnt pathway modulation to promote bone growth (FIG. 1); details: doses of 2.5 ng (low), 60 ng (medium), 125 ng (high) and 1250 ng (very high)
Experimental: For example, the mouse test animal is treated with a predetermined dose of a SOST antagonist candidate for a complete dosing schedule. A control mouse is treated with a control solution, preferably a non-irritating buffer solution or other carrier. Once the dosing schedule has been completed, both test and control animals are examined with sacrifice using micro-CT to determine the quantity of bone formation present.

Question: For `CC(C(=O)O)c1ccc(N2Cc3ccccc3C2=O)cc1` (stereo not shown) [indoprofen], which “increase for trabecular bone mineral density (BMD)” value (C57BL/6 mice; pQCT on femur) is on record?
Answer: greater than 2%

Question: What about the “increase in bone mineral content (BMC) for the femur over baseline controls” value (C57BL/6 mice; pQCT) of the same compound?
Answer: greater than 6%

Question: What about the “promotion of bone growth (quantity of bone formation by micro-CT)” value (mouse) of the same compound?
Answer: promoting bone growth

Question: And the “modulation of the Wnt pathway to promote bone growth” value (Wnt pathway)?
Answer: modulating the Wnt pathway to promote bone growth
